This is an account of results in patent US20240100072A1, “SUBCUTANEOUSLY ADMINISTERED TREATMENTS FOR ADVANCED PARKINSON'S DISEASE” (AbbVie Inc., priority 2021, published 2024).

For one data set, the system named is plasma proteins. Kind of data set: Distribution: erythrocyte/plasma partitioning, plasma protein binding, blood-brain barrier. Type of data set: in vitro ADME. From the text:
Levodopa is transported into the brain by the carrier mechanism for large neutral amino acids.

The nature of data set [1]: Metabolism and elimination. The conditions noted are these: in vivo; for half-life: human. From the text:
Levodopa is mainly eliminated via metabolism by the aromatic amino acid decarboxylase (AAAD) and the catechol-O-methyl-transferase (COMT) enzymes. Other routes of metabolism are transamination and oxidation. The decarboxylation of levodopa to dopamine by AAAD is the major enzymatic pathway when no enzyme inhibitor is co-administered. O-methylation of levodopa by COMT forms 3-O-methyldopa. […] These 2 metabolites are primarily eliminated in the urine unchanged or as glucuronide conjugates.

The term half-life denotes the time in which the quantity being followed falls by half. A low value points to fast loss. In the case of `N[C@@H](Cc1ccc(O)c(O)c1)C(=O)O` [levodopa, L-3,4-dihydroxyphenylalanine], in the data set on plasma proteins, the “binding to plasma proteins” value is on record as less than 10%; the “partitioning ratio between erythrocytes and plasma” value is listed as “approximately 1”. Also, the half-life in data set [1] is roughly 1.5 h.

As to `C[C@@](Cc1ccc(O)c(O)c1)(NN)C(=O)O` [carbidopa], the “blood-brain barrier passage” value in the data set on plasma proteins is recorded as “does not cross the blood-brain barrier”. In data set [1], the half-life was roughly 2 h and the “unchanged drug as share of the total urinary excretion” value amounted to 30%.
